Measurements taken from patent publication US12077503B2, “Substituted cyclic amides and their use as herbicides” (FMC CORPORATION, priority 2015, dated 2024).
Where two headings read alike, the source gives them in different places.

Key:
Format in all cases: in vivo
Kochia (Kochia scoparia) [1] = assay: Test A preemergence; details: Bassia scoparia, pre-emergence, 240 h; for pest or weed control at 125 g/ha: 125 g ai/ha, preemergence, visual rating after approx. 10 d, 0 to 100 scale where 0 is no effect and 100 is complete control; for pest or weed control at 125 g/ha / pest or weed control at 31 g/ha: read-out: Plant response rating, Kochia; for pest or weed control at 31 g/ha: 31 g ai/ha, 0 to 100 scale (0 no effect, 100 complete control)
Outline: (§1)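 Preemergence soil spray on seeded pots or post-emergence spray on 1–2 leaf plants, in loam–sand blend. Greenhouse ~10 d. Visual rating 0–100 against untreated plants.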

[2] = test system: barnyardgrass (Echinochloa crus-galli); assay: Test A preemergence; details: Echinochloa crus-galli, pre-emergence, 240 h; for pest or weed control at 125 g/ha: 125 g ai/ha, preemergence, 0 to 100 scale where 0 is no effect and 100 is complete control; for pest or weed control at 31 g/ha: 31 g ai/ha, 0 to 100 scale (0 no effect, 100 complete control)
Outline: as §1

[3] = test system: giant foxtail (Setaria faberii); assay: Test A preemergence; details: Setaria faberi, pre-emergence, 240 h; for pest or weed control at 125 g/ha: 125 g ai/ha, preemergence, 0 to 100 scale where 0 is no effect and 100 is complete control; for pest or weed control at 31 g/ha: 31 g ai/ha, 0 to 100 scale (0 no effect, 100 complete control)
Outline: as §1

[4] = test system: pigweed (Amaranthus retroflexus); assay: Test A preemergence; details: Amaranthus retroflexus, pre-emergence, 240 h; for pest or weed control at 125 g/ha: 125 g ai/ha, preemergence, 0 to 100 scale where 0 is no effect and 100 is complete control; for pest or weed control at 31 g/ha: 31 g ai/ha, 0 to 100 scale (0 no effect, 100 complete control)
[5] = test system: ragweed (common ragweed, Ambrosia elatior); assay: Test A preemergence; details: Ambrosia artemisiifolia, pre-emergence, 240 h; for pest or weed control at 125 g/ha: 125 g ai/ha, preemergence, 0 to 100 scale where 0 is no effect and 100 is complete control; for pest or weed control at 31 g/ha: 31 g ai/ha, 0 to 100 scale (0 no effect, 100 complete control)
Outline: as §1

[6] = test system: ryegrass, Italian (Italian ryegrass, Lolium multiflorum); assay: Test A preemergence; details: Lolium multiflorum, pre-emergence, 240 h; for pest or weed control at 125 g/ha: 125 g ai/ha, preemergence, 0 to 100 scale where 0 is no effect and 100 is complete control; for pest or weed control at 31 g/ha: 31 g ai/ha, 0 to 100 scale (0 no effect, 100 complete control)
Outline: as §1

Kochia (Kochia scoparia) [7] = assay: Test A postemergence; details: Bassia scoparia, post-emergence, 240 h; for pest or weed control at 125 g/ha: 125 g ai/ha, postemergence, visual injury rating after approximately 10 d, read-out: Kochia plant response rating (0 to 100 scale, 0 no effect, 100 complete control); for pest or weed control at 31 g/ha: Postemergence, 31 g ai/ha, visual injury after approx. 10 d, 0 to 100 scale, 0 no effect, 100 complete control, read-out: Plant response rating, Kochia
Outline: as §1

[8] = test system: barnyardgrass (Echinochloa crus-galli); assay: Test A postemergence; details: Echinochloa crus-galli, post-emergence, 240 h; for pest or weed control at 125 g/ha: 125 g ai/ha, postemergence, visual injury rating after approximately 10 d, read-out: Barnyardgrass plant response rating (0 to 100 scale, 0 no effect, 100 complete control); for pest or weed control at 31 g/ha: Postemergence, 31 g ai/ha, visual injury after approx. 10 d, 0 to 100 scale, 0 no effect, 100 complete control, read-out: Plant response rating, Barnyardgrass
Outline: as §1

[9] = test system: blackgrass (Alopecurus myosuroides); assay: Test A postemergence; details: Alopecurus myosuroides, post-emergence, 240 h; for pest or weed control at 125 g/ha: 125 g ai/ha, postemergence, visual injury rating after approximately 10 d, read-out: Blackgrass plant response rating (0 to 100 scale, 0 no effect, 100 complete control); for pest or weed control at 31 g/ha: Postemergence, 31 g ai/ha, visual injury after approx. 10 d, 0 to 100 scale, 0 no effect, 100 complete control, read-out: Plant response rating, Blackgrass
Outline: as §1

[10] = test system: giant foxtail (Setaria faberii); assay: Test A postemergence; details: Setaria faberi, post-emergence, 240 h; for pest or weed control at 125 g/ha: 125 g ai/ha, postemergence, visual injury rating after approximately 10 d, read-out: Foxtail, Giant plant response rating (0 to 100 scale, 0 no effect, 100 complete control); for pest or weed control at 31 g/ha: Postemergence, 31 g ai/ha, visual injury after approx. 10 d, 0 to 100 scale, 0 no effect, 100 complete control, read-out: Plant response rating, Foxtail, Giant
Outline: as §1

[11] = test system: ragweed (common ragweed, Ambrosia elatior); assay: Test A postemergence; details: Ambrosia artemisiifolia, post-emergence, 240 h; for pest or weed control at 125 g/ha: 125 g ai/ha, postemergence, visual injury rating after approximately 10 d, read-out: Ragweed plant response rating (0 to 100 scale, 0 no effect, 100 complete control); for pest or weed control at 31 g/ha: Postemergence, 31 g ai/ha, visual injury after approx. 10 d, 0 to 100 scale, 0 no effect, 100 complete control, read-out: Plant response rating, Ragweed
Outline: as §1

[12] = test system: barnyardgrass (Echinochloa crus-galli); assay: Test B flooded paddy test; details: Echinochloa crus-galli, Flood, 250 g ai/ha; scale of 0 to 100 where 0 is no effect and 100 is complete control; read-out: Barnyardgrass plant response rating
Outline: (§2)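 Compound goes directly into floodwater once pots are flooded 3 cm above soil, targeting plants at two leaves; the water depth is then held for the test duration. Plants sit 13–15 d in a greenhouse and are rated visually, 100 denoting complete control.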

[13] = test system: ducksalad (Heteranthera limosa); assay: Test B flooded paddy test; details: Heteranthera limosa, Flood, 250 g ai/ha; scale of 0 to 100 where 0 is no effect and 100 is complete control; read-out: Ducksalad plant response rating
Outline: as §2

rice (Oryra sativa) = assay: Test B flooded paddy test; details: Oryza sativa, Flood, 250 g ai/ha; scale of 0 to 100 where 0 is no effect and 100 is complete control; read-out: Rice plant response rating
Outline: as §2

[14] = test system: sedge, umbrella (small-flower umbrella sedge, Cyperus difformis); assay: Test B flooded paddy test; details: Cyperus difformis, Flood, 250 g ai/ha; scale of 0 to 100 where 0 is no effect and 100 is complete control; read-out: Sedge, Umbrella plant response rating
Outline: as §2

[15] = visual rating after approx. 10 d, read-out: Plant response rating, Barnyardgrass
[16] = Preemergence, read-out: Plant response rating, Barnyardgrass
[17] = visual rating after approx. 10 d, read-out: Plant response rating, Foxtail, Giant
[18] = Preemergence, read-out: Plant response rating, Foxtail, Giant
[19] = visual rating after approx. 10 d, read-out: Plant response rating, Pigweed
[20] = Preemergence, read-out: Plant response rating, Pigweed
[21] = visual rating after approx. 10 d, read-out: Plant response rating, Ragweed
[22] = Preemergence, read-out: Plant response rating, Ragweed
[23] = visual rating after approx. 10 d, read-out: Plant response rating, Ryegrass, Italian
[24] = Preemergence, read-out: Plant response rating, Ryegrass, Italian

O=C(Nc1cccc(F)c1F)[C@H]1C(=O)N(O)CC[C@@H]1c1ccc(F)cc1 [Compound 805]
pest or weed control at 125 g/ha (Kochia (Kochia scoparia) [1]): 0% | pest or weed control at 31 g/ha (Kochia (Kochia scoparia) [1]; Preemergence): 0% | pest or weed control at 125 g/ha [2, 15]: 0% | pest or weed control at 31 g/ha [2, 16]: 0% | pest or weed control at 125 g/ha [3, 17]: 0% | pest or weed control at 31 g/ha [3, 18]: 0% | pest or weed control at 125 g/ha [4, 19]: 0% | pest or weed control at 31 g/ha [4, 20]: 0% | pest or weed control at 125 g/ha [5, 21]: 0% | pest or weed control at 31 g/ha [5, 22]: 0% | pest or weed control at 125 g/ha [6, 23]: 0% | pest or weed control at 31 g/ha [6, 24]: 0% | pest or weed control at 125 g/ha (Kochia (Kochia scoparia) [7]): 0% | pest or weed control at 31 g/ha (Kochia (Kochia scoparia) [7]): 0% | pest or weed control at 125 g/ha [8]: 0% | pest or weed control at 31 g/ha [8]: 0% | pest or weed control at 125 g/ha [9]: 0% | pest or weed control at 31 g/ha [9]: 0% | pest or weed control at 125 g/ha [10]: 0% | pest or weed control at 31 g/ha [10]: 0% | pest or weed control at 125 g/ha [11]: 0% | pest or weed control at 31 g/ha [11]: 0% | pest or weed control at 250 g/ha [12]: 0% | pest or weed control at 250 g/ha [13]: 0% | pest or weed control at 250 g/ha (rice (Oryra sativa)): 0% | pest or weed control at 250 g/ha [14]: 0%

CSc1ccccc1NC(=O)[C@H]1C(=O)N(C)CC[C@@H]1c1ccc2c(c1)OC(F)(F)O2 [Compound 814]
pest or weed control at 125 g/ha (Kochia (Kochia scoparia) [1]): 0% | pest or weed control at 31 g/ha (Kochia (Kochia scoparia) [1]; Preemergence): 0% | pest or weed control at 125 g/ha [2, 15]: 0% | pest or weed control at 31 g/ha [2, 16]: 0% | pest or weed control at 125 g/ha [3, 17]: 0% | pest or weed control at 31 g/ha [3, 18]: 0% | pest or weed control at 125 g/ha [4, 19]: 0% | pest or weed control at 31 g/ha [4, 20]: 0% | pest or weed control at 125 g/ha [5, 21]: 0% | pest or weed control at 31 g/ha [5, 22]: 0% | pest or weed control at 125 g/ha [6, 23]: 0% | pest or weed control at 31 g/ha [6, 24]: 0% | pest or weed control at 125 g/ha (Kochia (Kochia scoparia) [7]): 0% | pest or weed control at 31 g/ha (Kochia (Kochia scoparia) [7]): 0% | pest or weed control at 125 g/ha [8]: 0% | pest or weed control at 31 g/ha [8]: 0% | pest or weed control at 125 g/ha [9]: 0% | pest or weed control at 31 g/ha [9]: 0% | pest or weed control at 125 g/ha [10]: 0% | pest or weed control at 31 g/ha [10]: 0% | pest or weed control at 125 g/ha [11]: 0% | pest or weed control at 31 g/ha [11]: 0% | pest or weed control at 250 g/ha [12]: 0% | pest or weed control at 250 g/ha [13]: 50% | pest or weed control at 250 g/ha (rice (Oryra sativa)): 0% | pest or weed control at 250 g/ha [14]: 60%

CN1C[C@H](c2cc(F)c(C(F)(F)F)c(F)c2)[C@@H](C(=O)Nc2ccccc2F)C1=O [Compound 899]
pest or weed control at 500 g/ha (Kochia (Kochia scoparia) [1]; 500 g ai/ha, Preemergence, visual injury vs untreated controls after approximately 10 d, read-out: Kochia plant response rating (0 to 100 scale where 0 is no effect and 100 is complete control)): 70% | pest or weed control at 125 g/ha ([2]; read-out: Barnyardgrass plant response rating): 90% | pest or weed control at 500 g/ha ([2]; 500 g ai/ha, Preemergence, visual injury vs untreated controls after approximately 10 d, read-out: Barnyardgrass plant response rating (0 to 100 scale where 0 is no effect and 100 is complete control)): 90% | pest or weed control at 125 g/ha ([3]; read-out: Foxtail, Giant plant response rating): 90% | pest or weed control at 500 g/ha ([3]; 500 g ai/ha, Preemergence, visual injury vs untreated controls after approximately 10 d, read-out: Foxtail, Giant plant response rating (0 to 100 scale where 0 is no effect and 100 is complete control)): 90% | pest or weed control at 125 g/ha ([4]; read-out: Pigweed plant response rating): 20% | pest or weed control at 500 g/ha ([4]; 500 g ai/ha, Preemergence, visual injury vs untreated controls after approximately 10 d, read-out: Pigweed plant response rating (0 to 100 scale where 0 is no effect and 100 is complete control)): 40% | pest or weed control at 125 g/ha ([5]; read-out: Ragweed plant response rating): 20% | pest or weed control at 500 g/ha ([5]; 500 g ai/ha, Preemergence, visual injury vs untreated controls after approximately 10 d, read-out: Ragweed plant response rating (0 to 100 scale where 0 is no effect and 100 is complete control)): 60% | pest or weed control at 125 g/ha ([6]; read-out: Ryegrass, Italian plant response rating): 30% | pest or weed control at 500 g/ha ([6]; 500 g ai/ha, Preemergence, visual injury vs untreated controls after approximately 10 d, read-out: Ryegrass, Italian plant response rating (0 to 100 scale where 0 is no effect and 100 is complete control)): 20% | pest or weed control at 125 g/ha (Kochia (Kochia scoparia) [7]): 0% | pest or weed control at 125 g/ha [8]: 80% | pest or weed control at 125 g/ha [9]: 40% | pest or weed control at 125 g/ha [10]: 90% | pest or weed control at 125 g/ha [11]: 20% | pest or weed control at 250 g/ha [12]: 55% | pest or weed control at 250 g/ha [13]: 10% | pest or weed control at 250 g/ha (rice (Oryra sativa)): 0% | pest or weed control at 250 g/ha [14]: 0%
